According to patent US20020137929A1, “1 - (3-heterocyclylphenyl) isothiourea, -isourea, -guanidine and -amidine herbicidal agents” (Intellectual Property Department, BASF Aktiengesellschaft, priority 1998, published 2002):

Key:
[1] = system: GALAP (Galium); test: Preemergence herbicidal evaluation; assay type: in vivo, Galium aparine; details: rated 4-5 weeks after treatment
Summary of the method: (§1)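 In this greenhouse assay, monocot and dicot seeds are planted in soil and treated prior to emergence with an aqueous acetone spray (about 0.0156-0.500 kg/ha). Plants are assessed visually against control on a 0-9 scale after 4-5 weeks.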

[2] = system: AMBEL (Ragweed, Common); test: Postemergence herbicidal evaluation; assay type: in vivo, Ambrosia artemisifolia; details: postemergence
Summary of the method: (§2)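 Seedlings grown about two weeks were sprayed at 40 psi with compound dispersed in 50/50 acetone/water plus 0.5% TWEEN 20, at about 0.0156 to 0.500 kg/ha. Plants were kept in the greenhouse and scored 4–5 weeks later on a 0–9 visual scale against untreated controls.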

[3] = system: ECHORC (Watergrass (Calif.)); test: Preemergence weed control under flooded paddy conditions; assay type: in vivo, Echinochloa oryzoides; details: rated 3-4 weeks after treatment
Summary of the method: (§3)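 Seeds or propagules sown in top 0.5 cm of silt loam soil, flooded 1.5 to 3 cm above surface throughout. Compound in 50/50 v/v aqueous/acetone pipetted into flood water at about 0.0313 to 0.500 kg/ha. Visual 0-9 rating versus control after three to four weeks in greenhouse.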

[4] = system: SAGPY (Arrowhead (Pygmaea)); test: as above; assay type: in vivo, Sagittaria pygmaea; details: rated 3-4 weeks after treatment
Summary of the method: as §3

[5] = system: TRZAWR (Wheat, Winter, cv Riband); test: Postemergence herbicidal evaluation; assay type: in vivo, Triticum aestivum; details: postemergence
Summary of the method: as §2

[6] = system: SETVI (Foxtail, Green); test: Preemergence herbicidal evaluation; assay type: in vivo, Setaria viridis; details: rated 4-5 weeks after treatment
Summary of the method: as §1

[7] = system: GALAP (Galium); test: Postemergence herbicidal evaluation; assay type: in vivo, Galium aparine; details: postemergence
Summary of the method: as §2

[8] = system: MOOVA (Monochoria); test: Preemergence weed control under flooded paddy conditions; assay type: in vivo, Monochoria vaginalis; details: rated 3-4 weeks after treatment
Summary of the method: as §3

[9] = system: GLXMAW (Soybean, Williams); test: Postemergence herbicidal evaluation; assay type: in vivo, Glycine max, (L.) Merr. cv Williams; details: postemergence
Summary of the method: as §2

[10] = system: ORYSAT (Rice, Tebonnet); test: Preemergence herbicidal evaluation; assay type: in vivo, Oryza sativa, (L.) Tebonnet; details: rated 4-5 weeks after treatment
Summary of the method: as §1

[11] = system: CASOB (Sicklepod); test: Postemergence herbicidal evaluation; assay type: in vivo, Cassia obtusifolia; details: postemergence
Summary of the method: as §2

[12] = system: CYPSE (Flatsedge); test: Preemergence weed control under flooded paddy conditions; assay type: in vivo, Cyperus serotinus; details: rated 3-4 weeks after treatment
Summary of the method: as §3

Structure (SMILES): CCOC(=O)CN1C(=O)C(C(=O)OC)SC1=Nc1cc(-n2c(=O)cc(C(F)(F)F)n(C)c2=O)c(F)cc1Cl (stereo not drawn) [Compound 128, 5-Carboxy-2-{{2-chloro-5-[3,6-dihydro-3-methyl-2,6-dioxo-4-(trifluoromethyl)-1(2H)-pyrimidinyl]-4-fluorophenyl}imino}-4-oxo-3-thiazolidineacetic acid, 3-ethyl methyl ester]
- Preemergence herbicidal rating GALAP ([1]; rate 0.0156 kg/ha): 0.0
- Preemergence herbicidal rating GALAP ([1]; rate 0.0313 kg/ha): 0.0
- Preemergence herbicidal rating GALAP ([1]; rate 0.0625 kg/ha): 0.0
- Preemergence herbicidal rating GALAP ([1]; rate 0.1250 kg/ha): 1.0
- Preemergence herbicidal rating GALAP ([1]; rate 0.2500 kg/ha): 1.0
- Herbicidal rating AMBEL ([2]; rate 0.0156 kg/ha): 7.0
- Herbicidal rating AMBEL ([2]; rate 0.0313 kg/ha): 9.0
- Herbicidal rating AMBEL ([2]; rate 0.0625 kg/ha): 9.0
- herbicidal effect rating, ECHORC ([3]; 0.0313 kg/ha): 5.0
- herbicidal effect rating, ECHORC ([3]; 0.0625 kg/ha): 7.0
- herbicidal effect rating, ECHORC ([3]; 0.1250 kg/ha): 7.0
- herbicidal effect rating, ECHORC ([3]; 0.2500 kg/ha): 9.0
- herbicidal effect rating, SAGPY ([4]; 0.0313 kg/ha): 0.0
- herbicidal effect rating, SAGPY ([4]; 0.0625 kg/ha): 3.0
- herbicidal effect rating, SAGPY ([4]; 0.1250 kg/ha): 4.0
- herbicidal effect rating, SAGPY ([4]; 0.2500 kg/ha): 6.0
- Herbicidal rating TRZAWR ([5]; rate 0.0156 kg/ha): 2.0
- Herbicidal rating TRZAWR ([5]; rate 0.0313 kg/ha): 3.0
- Herbicidal rating TRZAWR ([5]; rate 0.0625 kg/ha): 3.5
- Preemergence herbicidal rating SETVI ([6]; rate 0.0156 kg/ha): 0.0
- Preemergence herbicidal rating SETVI ([6]; rate 0.0313 kg/ha): 1.0
- Preemergence herbicidal rating SETVI ([6]; rate 0.1250 kg/ha): 1.0
- Preemergence herbicidal rating SETVI ([6]; rate 0.2500 kg/ha): 7.0
- Herbicidal rating GALAP ([7]; rate 0.0156 kg/ha): 1.0
- Herbicidal rating GALAP ([7]; rate 0.0313 kg/ha): 1.0
- Herbicidal rating GALAP ([7]; rate 0.0625 kg/ha): 3.0
- herbicidal effect rating, MOOVA ([8]; 0.0313 kg/ha): 6.0
- herbicidal effect rating, MOOVA ([8]; 0.0625 kg/ha): 7.0
- herbicidal effect rating, MOOVA ([8]; 0.1250 kg/ha): 9.0
- herbicidal effect rating, MOOVA ([8]; 0.2500 kg/ha): 9.0
- Herbicidal rating GLXMAW ([9]; rate 0.0156 kg/ha): 4.5
- Herbicidal rating GLXMAW ([9]; rate 0.0313 kg/ha): 4.5
- Herbicidal rating GLXMAW ([9]; rate 0.0625 kg/ha): 6.0
- Preemergence herbicidal rating ORYSAT ([10]; rate 0.0156 kg/ha): 0.0
- Preemergence herbicidal rating ORYSAT ([10]; rate 0.0313 kg/ha): 0.0
- Preemergence herbicidal rating ORYSAT ([10]; rate 0.0625 kg/ha): 0.0
- Preemergence herbicidal rating ORYSAT ([10]; rate 0.1250 kg/ha): 0.0
- Preemergence herbicidal rating ORYSAT ([10]; rate 0.2500 kg/ha): 0.0
- Herbicidal rating CASOB ([11]; rate 0.0156 kg/ha): 1.0
- Herbicidal rating CASOB ([11]; rate 0.0313 kg/ha): 1.0
- Herbicidal rating CASOB ([11]; rate 0.0625 kg/ha): 7.0
- herbicidal effect rating, CYPSE ([12]; 0.0625 kg/ha): 0.0
- herbicidal effect rating, CYPSE ([12]; 0.2500 kg/ha): 3.0

Structure (SMILES): Cc1ccccc1CN1C(=O)CSC1=Nc1cc(-n2c(=O)cc(C(F)(F)F)n(C)c2=O)c(F)cc1Cl [Compound 129, 3-{4-Chloro-2-fluoro-5-{[3-(o-methylbenzyl)-4-oxo-2-thiazolidinylidene]amino}phenyl}-1-methyl-6-(trifluoromethyl)-2,4 (1H,3H)-pyrimidinedione]
- Preemergence herbicidal rating GALAP ([1]; rate 0.0156 kg/ha): 1.0
- Preemergence herbicidal rating GALAP ([1]; rate 0.0313 kg/ha): 1.0
- Preemergence herbicidal rating GALAP ([1]; rate 0.0625 kg/ha): 1.0
- Preemergence herbicidal rating GALAP ([1]; rate 0.1250 kg/ha): 0.0
- Preemergence herbicidal rating GALAP ([1]; rate 0.2500 kg/ha): 0.0
- Herbicidal rating AMBEL ([2]; rate 0.0156 kg/ha): 9.0
- Herbicidal rating AMBEL ([2]; rate 0.0313 kg/ha): 9.0
- Herbicidal rating AMBEL ([2]; rate 0.0625 kg/ha): 9.0
- herbicidal effect rating, ECHORC ([3]; 0.0313 kg/ha): 9.0
- herbicidal effect rating, ECHORC ([3]; 0.0625 kg/ha): 9.0
- herbicidal effect rating, ECHORC ([3]; 0.1250 kg/ha): 9.0
- herbicidal effect rating, ECHORC ([3]; 0.2500 kg/ha): 9.0
- herbicidal effect rating, SAGPY ([4]; 0.0313 kg/ha): 0.0
- herbicidal effect rating, SAGPY ([4]; 0.0625 kg/ha): 0.0
- herbicidal effect rating, SAGPY ([4]; 0.1250 kg/ha): 2.0
- herbicidal effect rating, SAGPY ([4]; 0.2500 kg/ha): 7.0
- Herbicidal rating TRZAWR ([5]; rate 0.0156 kg/ha): 3.0
- Herbicidal rating TRZAWR ([5]; rate 0.0313 kg/ha): 3.5
- Herbicidal rating TRZAWR ([5]; rate 0.0625 kg/ha): 3.5
- Preemergence herbicidal rating SETVI ([6]; rate 0.0156 kg/ha): 1.0
- Preemergence herbicidal rating SETVI ([6]; rate 0.0313 kg/ha): 1.0
- Preemergence herbicidal rating SETVI ([6]; rate 0.0625 kg/ha): 1.0
- Preemergence herbicidal rating SETVI ([6]; rate 0.1250 kg/ha): 6.0
- Preemergence herbicidal rating SETVI ([6]; rate 0.2500 kg/ha): 7.0
- Herbicidal rating GALAP ([7]; rate 0.0156 kg/ha): 2.0
- Herbicidal rating GALAP ([7]; rate 0.0313 kg/ha): 4.0
- Herbicidal rating GALAP ([7]; rate 0.0625 kg/ha): 4.0
- herbicidal effect rating, MOOVA ([8]; 0.0313 kg/ha): 6.0
- herbicidal effect rating, MOOVA ([8]; 0.0625 kg/ha): 7.0
- herbicidal effect rating, MOOVA ([8]; 0.1250 kg/ha): 9.0
- herbicidal effect rating, MOOVA ([8]; 0.2500 kg/ha): 9.0
- Herbicidal rating GLXMAW ([9]; rate 0.0156 kg/ha): 5.0
- Herbicidal rating GLXMAW ([9]; rate 0.0313 kg/ha): 5.0
- Herbicidal rating GLXMAW ([9]; rate 0.0625 kg/ha): 6.0
- Preemergence herbicidal rating ORYSAT ([10]; rate 0.0156 kg/ha): 0.0
- Preemergence herbicidal rating ORYSAT ([10]; rate 0.0313 kg/ha): 0.0
- Preemergence herbicidal rating ORYSAT ([10]; rate 0.0625 kg/ha): 1.0
- Preemergence herbicidal rating ORYSAT ([10]; rate 0.1250 kg/ha): 1.0
- Preemergence herbicidal rating ORYSAT ([10]; rate 0.2500 kg/ha): 3.0
- Herbicidal rating CASOB ([11]; rate 0.0156 kg/ha): 3.0
- Herbicidal rating CASOB ([11]; rate 0.0313 kg/ha): 4.0
- Herbicidal rating CASOB ([11]; rate 0.0625 kg/ha): 4.0
- herbicidal effect rating, CYPSE ([12]; 0.1250 kg/ha): 7.0
- herbicidal effect rating, CYPSE ([12]; 0.2500 kg/ha): 9.0
